Patent US10183021B2, “sGC stimulators” (Ironwood Pharmaceuticals, Inc., priority 2013, dated 2019)
Read-outs that look alike come from different tables or passages of the source.

Columns and labels:
[1] = target: T1, soluble guanylate cyclase (sGC) (Homo sapiens (Human), UniProt Q02108+Q02153); assay: sGC-HEK-cGMP assay, new protocol with DETA-NONOate, LC/MS detection (Example 2C); assay type: cell-based
Sprague-Dawley rats = assay: Blood pressure change in Sprague-Dawley rats (Example 4); assay type: in vivo, rat; conditions: conscious male Sprague-Dawley rats, PO, 10 mg/kg
Description: Male rats (250-350 g body weight, supplied by Harlan Laboratories) were anesthetized with ketamine/xylazine and a heparinized saline fluid filled catheter implanted into the right femoral artery. The catheter was exteriorized between the scapula, capped, and the animal allowed to recover for at least 7 days post surgery prior to any compound testing. Prior to testing animals were maintained on normal diet, with free access to drinking water, under a 12 hour light-dark cycle.
On the day of experimentation, under inhaled isoflurane anesthesia, the catheter was uncapped and connected to a tether (Instech Labs) and pressure transducer (Harvard Apparatus). Blood pressure and heart rate were subsequently captured and analyzed with a dedicated data capture system (PowerLab, ADInstruments). Data sampling rates were set at 1 cycle per second. Once connected, each rat was allowed to recover from anesthesia and baseline blood pressure and heart rate levels were established in these conscious, freely-moving animals. Once baseline was established either vehicle (0.5% methylcellulose or 100% PEG400) or test article was administered orally (PO, 10 mg/kg) and the effects on blood pressure and heart rate monitored for up to 24 hours.
Data are reported as hourly averages and changes in blood pressure are calculated from subtracting individual baseline on an hourly basis.

[2] = target: T1, soluble guanylate cyclase (sGC); assay: sGC-HEK-cGMP assay with SNP incubation, LC/MS detection (Example 2A); assay type: cell-based
Outline: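 HEK293 cells with endogenous sGC were pretreated 15 min at 37 °C with 0.5 mM IBMX, then exposed 10 min at 37 °C to compound (added from 0.0001–30 μM solutions) plus SNP (from 10 μM solution). After 0.1 M HCl lysis, cGMP was quantified by LC/MS against a standard curve.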

[3] = read-out: Absolute EC50 (uM) - binned
[4] = HEK293 cells, 10 μM SNP, LC/MS detection, 100% = BAY 41-2272 at 10 μM, read-out: HEK assay Emax - unconstrained (%)
[5] = HEK293 cells, 10 μM SNP, LC/MS detection, top of curve not fitted to 100%, read-out: HEK assay EC50 - unconstrained
[6] = HEK293 cells, 10 μM SNP, LC/MS detection, top of curve fitted to 100%, read-out: HEK assay EC50 - constrained

T1 sequence (Q02153 whole entry): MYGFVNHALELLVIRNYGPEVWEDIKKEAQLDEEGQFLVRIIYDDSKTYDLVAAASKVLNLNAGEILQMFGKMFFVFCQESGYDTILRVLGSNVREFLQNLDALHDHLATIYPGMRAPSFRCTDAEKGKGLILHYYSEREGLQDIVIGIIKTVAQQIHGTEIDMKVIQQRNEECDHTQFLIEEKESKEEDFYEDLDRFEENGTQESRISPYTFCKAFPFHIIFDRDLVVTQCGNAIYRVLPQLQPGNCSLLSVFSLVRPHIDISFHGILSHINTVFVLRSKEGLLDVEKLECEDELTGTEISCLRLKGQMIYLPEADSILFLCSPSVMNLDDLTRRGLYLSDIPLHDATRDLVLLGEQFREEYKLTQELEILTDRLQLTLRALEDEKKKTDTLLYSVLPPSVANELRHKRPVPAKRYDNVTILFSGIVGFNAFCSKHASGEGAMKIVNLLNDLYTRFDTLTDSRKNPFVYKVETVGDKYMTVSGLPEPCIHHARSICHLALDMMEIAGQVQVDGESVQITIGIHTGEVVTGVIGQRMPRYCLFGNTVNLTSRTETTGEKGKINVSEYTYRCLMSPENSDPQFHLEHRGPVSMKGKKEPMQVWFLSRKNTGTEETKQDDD
T1 sequence (Q02108 whole entry): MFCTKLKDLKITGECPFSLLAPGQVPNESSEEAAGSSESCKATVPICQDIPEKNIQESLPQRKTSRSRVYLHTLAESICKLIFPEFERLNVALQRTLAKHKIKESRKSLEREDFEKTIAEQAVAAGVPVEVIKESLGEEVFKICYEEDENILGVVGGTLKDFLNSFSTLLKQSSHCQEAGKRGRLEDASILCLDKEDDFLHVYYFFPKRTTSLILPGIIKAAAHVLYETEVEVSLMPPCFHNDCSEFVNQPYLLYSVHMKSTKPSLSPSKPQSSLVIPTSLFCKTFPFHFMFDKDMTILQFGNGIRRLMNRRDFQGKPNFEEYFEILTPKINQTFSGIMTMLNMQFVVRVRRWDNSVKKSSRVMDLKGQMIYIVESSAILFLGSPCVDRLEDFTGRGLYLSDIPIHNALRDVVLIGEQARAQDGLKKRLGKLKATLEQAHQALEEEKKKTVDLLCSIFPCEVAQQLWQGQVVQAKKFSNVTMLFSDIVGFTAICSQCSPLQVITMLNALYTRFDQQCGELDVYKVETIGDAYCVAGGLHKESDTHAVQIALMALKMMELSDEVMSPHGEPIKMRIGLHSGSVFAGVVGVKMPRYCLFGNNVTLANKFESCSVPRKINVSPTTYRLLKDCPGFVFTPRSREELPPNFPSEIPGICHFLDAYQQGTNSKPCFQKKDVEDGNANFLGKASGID

Row | SMILES | EC50 [1, 3] [µM] | Rat Mean Arterial Pressure peak change from baseline at 10 mpk (Sprague-Dawley rats) | Emax [2, 4] [%] | EC50 [2, 5] [nM] | other results
1 | OCC(CO)Nc1nc(-c2cc(-c3ccon3)n(Cc3ccccc3F)n2)ncc1F [Compound I-315] | < 0.1 | C (C = peak change from baseline at 10 mpk < −20) | – | – | –
2 | NC(=O)C(O)(CNc1nc(-c2cc(-c3ccon3)n(Cc3ccccc3F)n2)ncc1F)C(F)(F)F (stereo not shown) [Compound I-405] | 0.101 to 1 | C (C = peak change from baseline at 10 mpk < −20) | – | – | –
3 | OC[C@@H](O)CNc1nc(-c2cc(-c3ccon3)n(Cc3ccccc3F)n2)ncc1F [Compound I-313] | < 0.1 | C (C = peak change from baseline at 10 mpk < −20) | – | – | –
4 | OC(CNc1nc(-c2cc(-c3ccon3)n(Cc3ccccc3F)n2)ncc1F)C(F)(F)F (stereo not shown) [Compound I-337] | < 0.1 | C (C = peak change from baseline at 10 mpk < −20) | – | – | –
5 | C[C@H]1CCCN(c2nc(-c3cc(-c4ccon4)n(Cc4ccccc4F)n3)ncc2F)[C@H]1C(=O)O (racemic) [Compound I-161] | – | B (B = −20 ≤ peak change from baseline at 10 mpk ≤ −10) | – | – | –
6 | C[C@@H]1CCCN(c2nc(-c3cc(-c4ccon4)n(Cc4ccccc4F)n3)ncc2F)[C@@H]1C(=O)O [Compound I-330] | – | C (C = peak change from baseline at 10 mpk < −20) | – | – | –
7 | CN(c1nc(-c2cc(-c3ccon3)n(Cc3ccccc3F)n2)ncc1F)C(C(=O)O)c1ccccc1 (stereo not shown) [Compound I-142] | – | A (A = −10 < peak change from baseline at 10 mpk < 0) | 80 to 100 | 1 to 100 | –
8 | O=C(O)[C@H]1c2ccccc2CCN1c1nc(-c2cc(-c3ccon3)n(Cc3ccccc3F)n2)ncc1F [Compound I-121] | – | A (A = −10 < peak change from baseline at 10 mpk < 0) | 60 to 80 | 100 to 500 | –
9 | OC(CNc1nc(-c2cc(-c3ccon3)n(Cc3ccccc3F)n2)ncc1F)(C(F)(F)F)C(F)(F)F [Compound I-324] | 0.101 to 1 | C (C = peak change from baseline at 10 mpk < −20) | – | – | –
10 | CC1(C(=O)O)CCN(c2nc(-c3cc(-c4ccon4)n(Cc4ccccc4F)n3)ncc2F)C1 (stereo not shown) [Compound I-143] | – | B (B = −20 ≤ peak change from baseline at 10 mpk ≤ −10) | 80 to 100 | 100 to 500 | –
11 | C[C@H]1CCCN(c2nc(-c3cc(-c4ccon4)n(Cc4ccccc4F)n3)ncc2F)[C@H]1C(=O)O [Compound I-329] | – | B (B = −20 ≤ peak change from baseline at 10 mpk ≤ −10) | – | – | –
12 | O=C(O)C1(C(F)(F)F)CCN(c2nc(-c3cc(-c4ccon4)n(Cc4ccccc4F)n3)ncc2F)C1 (stereo not shown) [Compound I-185] | – | A (A = −10 < peak change from baseline at 10 mpk < 0) | 100 to 120 | 1000 to 5000 | –
13 | CC1(C(=O)O)CCN(c2nc(-c3cc(-c4ccon4)n(Cc4ccccc4F)n3)ncc2F)CC1 [Compound I-124] | – | B (B = −20 ≤ peak change from baseline at 10 mpk ≤ −10) | 60 to 80 | 1 to 100 | –
14 | O=S(=O)(NC1CN(c2nc(-c3cc(-c4ccon4)n(Cc4ccccc4F)n3)ncc2F)C1)C(F)(F)F [Compound I-388] | < 0.1 | B (B = −20 ≤ peak change from baseline at 10 mpk ≤ −10) | – | – | –
15 | CN(CC1(C(=O)O)CCC1)c1nc(-c2cc(-c3ccon3)n(Cc3ccccc3F)n2)ncc1F [Compound I-342] | < 0.1 | C (C = peak change from baseline at 10 mpk < −20) | – | – | –
16 | CC(O)(CNc1nc(-c2cc(-c3ccon3)n(Cc3ccccc3F)n2)ncc1F)C(N)=O (stereo not shown) [Compound I-389] | < 0.1 | C (C = peak change from baseline at 10 mpk < −20) | – | – | –
17 | O=C(Nc1ccnc(-c2cc(-c3ccon3)n(Cc3ccccc3F)n2)n1)C(O)(C(F)(F)F)C(F)(F)F [Compound I-400] | 0.101 to 1 | B (B = −20 ≤ peak change from baseline at 10 mpk ≤ −10) | – | – | –
18 | O=C(O)[C@H](Cc1cc2ccccc2[nH]1)Nc1nc(-c2cc(-c3ccon3)n(Cc3ccccc3F)n2)ncc1F [Compound I-81] | > 1 | – | – | – | EC50 [2, 6]: > 10000 nM
19 | COc1ccc2c(c1)CCN(c1nc(-c3cc(-c4ccon4)n(Cc4ccccc4F)n3)ncc1F)C2C(=O)O (stereo not shown) [Compound I-126] | < 0.1 | – | – | – | EC50 [2, 6]: 500 to 1000 nM
20 | CN(c1nc(-c2cc(-c3ccon3)n(Cc3ccccc3F)n2)ncc1F)[C@@H](Cc1ccccn1)C(=O)O [Compound I-257] | > 1 | – | – | – | EC50 [2, 6]: > 10000 nM
21 | O=C(O)C1(CNc2nc(-c3cc(-c4ccon4)n(Cc4ccccc4F)n3)ncc2F)CCCC1 [Compound I-129] | < 0.1 | – | – | – | EC50 [2, 6]: 100 to 500 nM

Row | SMILES | EC50 [1, 3] [µM] | Rat Mean Arterial Pressure peak change from baseline at 10 mpk (Sprague-Dawley rats) | Emax [2, 4] [%] | EC50 [2, 5] [nM] | other results
22 | CC(C)[C@H](Nc1nc(-c2cc(-c3ccon3)n(Cc3ccccc3F)n2)ncc1F)C(=O)NS(=O)(=O)C1CC1 [Compound I-258] | 0.101 to 1 | – | 100 to 120 | 1000 to 5000 | –
23 | CNS(=O)(=O)CCNc1nc(-c2cc(-c3ccon3)n(Cc3ccccc3F)n2)ncc1F [Compound I-367] | < 0.1 | – | 60 to 80 | 1 to 100 | –
24 | CN(Cc1nn[nH]n1)c1nc(-c2cc(-c3ccon3)n(Cc3ccccc3F)n2)ncc1F [Compound I-191] | < 0.1 | – | – | – | EC50 [2, 6]: > 10000 nM
25 | CC1C(=O)NCCN1c1nc(-c2cc(-c3ccon3)n(Cc3ccccc3F)n2)ncc1F (stereo not shown) [Compound I-54] | < 0.1 | – | – | – | EC50 [2, 6]: 100 to 500 nM
26 | O=C(O)[C@@]1(Nc2nc(-c3cc(-c4ccon4)n(Cc4ccccc4F)n3)ncc2F)CC2CC[C@H]1C2 [Compound I-114] | > 1 | – | 40 to 60 | 1000 to 5000 | –
27 | O=C(O)C1c2ccc(O)cc2CCN1c1nc(-c2cc(-c3ccon3)n(Cc3ccccc3F)n2)ncc1F (stereo not shown) [Compound I-127] | > 1 | – | – | – | EC50 [2, 6]: > 10000 nM
28 | NS(=O)(=O)C1CCN(c2nc(-c3cc(-c4ccon4)n(Cc4ccccc4F)n3)ncc2F)CC1 [Compound I-366] | < 0.1 | – | 40 to 60 | 1 to 100 | –
29 | O=C(O)C1CCc2ccccc2N1c1nc(-c2cc(-c3ccon3)n(Cc3ccccc3F)n2)ncc1F (stereo not shown) [Compound I-140] | 0.101 to 1 | – | 80 to 100 | 1000 to 5000 | –
30 | CN(CC(=O)NS(=O)(=O)c1ccccc1)c1nc(-c2cc(-c3ccon3)n(Cc3ccccc3F)n2)ncc1F [Compound I-361] | < 0.1 | – | 0 to 10 | 100 to 500 | –
31 | Oc1noc2c1CCN(c1nc(-c3cc(-c4ccon4)n(Cc4ccccc4F)n3)ncc1F)C2 [Compound I-364] | – | – | – | – | EC50 [2]: 1 to 100 nM; Emax ([2]; HEK293, read-out: HEK assay Emax - unconstrained (%)): 80 to 100%; EC50 [1]: < 0.1 µM
32 | O=C(O)C1CNCCN1c1nc(-c2cc(-c3ccon3)n(Cc3ccccc3F)n2)ncc1F (stereo not shown) [Compound I-133] | > 1 | – | – | – | EC50 [2, 6]: > 10000 nM
33 | CN(Cc1nc(C(=O)O)cn1C)c1nc(-c2cc(-c3ccon3)n(Cc3ccccc3F)n2)ncc1F [Compound I-376] | > 1 | – | 100 to 120 | 5000 to 10000 | –
34 | O=C(O)C(F)(F)CNc1nc(-c2cc(-c3ccon3)n(Cc3ccccc3F)n2)ncc1F [Compound I-206] | < 0.1 | – | – | – | EC50 [2, 6]: > 10000 nM
35 | O=C(O)CC1CCN(c2nc(-c3cc(-c4ccon4)n(Cc4ccccc4F)n3)ncc2F)CC1 [Compound I-230] | < 0.1 | – | 40 to 60 | > 10000 | –
36 | CC(C)[C@@H](C(=O)O)N(C)c1nc(-c2cc(-c3ncco3)n(Cc3ccccc3F)n2)ncc1F [Compound I-236] | < 0.1 | – | 100 to 120 | 100 to 500 | –
37 | O=C(O)c1cccn1-c1nc(-c2cc(-c3ccon3)n(Cc3ccccc3F)n2)ncc1F [Compound I-104] | > 1 | – | 20 to 40 | 1000 to 5000 | –
38 | CC(C)(C)OC(=O)N1CCN(c2nc(-c3cc(-c4ccon4)n(Cc4ccccc4F)n3)ncc2F)C(C(=O)O)C1 (stereo not shown) [Compound I-101] | 0.101 to 1 | – | – | – | EC50 [2, 6]: 5000 to 10000 nM
39 | CCOC(=O)CN1CCCN1c1nc(-c2cc(-c3ccon3)n(Cc3ccccc3F)n2)ncc1F [Compound I-213] | < 0.1 | – | > 120 | 500 to 1000 | –
40 | CC(C)(C)OC(=O)NC1CCN(c2nc(-c3cc(-c4ccon4)n(Cc4ccccc4F)n3)ncc2F)C1 (stereo not shown) [Compound I-35] | 0.101 to 1 | – | 40 to 60 | 500 to 1000 | –
41 | CN(CC1(C(=O)O)CC1)c1nc(-c2cc(-c3ccon3)n(Cc3ccccc3F)n2)ncc1F [Compound I-250] | < 0.1 | – | 80 to 100 | 1 to 100 | –
42 | O=C(O)C1(Nc2nc(-c3cc(-c4ccon4)n(Cc4ccccc4F)n3)ncc2F)CCCC1 [Compound I-138] | > 1 | – | – | – | EC50 [2, 6]: 1000 to 5000 nM
